The source of these data is US20240208932A1, “ARYLAMINO DERIVATIVE ESTROGEN RECEPTOR MODULATOR AND USE THEREOF” (XIZANG HAISCO PHARMACEUTICAL CO., LTD., priority 2021, published 2024).

One test has as its target ERα (Homo sapiens (Human), UniProt P03372). Nature of the test: Degradation effect of compounds on ERα in MCF-7 and CAMA-1 cells (automated western blot, 24 h). The settings on record: ERα degradation in MCF-7 cells; for DC50: 24 hours; for Dmax at 0.1 µM: MCF7, @100 nM. In kind it is cell-based. As to the method:
2. Degradation Effect of Compounds on ERα in MCF-7 and CAMA-1 Cells
Breast cancer cells MCF-7 and CAMA-1 were purchased from ATCC, the cell media were all EMEM+10% FBS, and the cells were cultured in an incubator at 37° C. under 5% CO2. On the first day, the cells in an exponential phase were collected. With a 10% css-FBS phenol red-free medium, the cell suspension was adjusted to a corresponding concentration, plated at 300000 cells/well and incubated for 3 days. After 3 days, the liquid in the well was aspirated, and a 10% css-FBS phenol red-free medium containing the compound to be tested was added and cultured in an incubator at 37° C. under 5% CO2. After 24 hours, 60 μl of RIPA lysis solution (containing 1× protease inhibitor cocktail) was added to each well, lysed on ice for 15 minutes, and then centrifuged at 4° C. for 10 minutes at 12000 g. The supernatant protein samples were collected, and protein quantification was performed by a BCA method. ERα was detected using fully automatic protein expression quantitative analysis, which involved diluting the protein to be tested to 1.5 mg/mL. 4 μL of the diluted protein samples were added to 1 μL of 5×Master Mix (provided in the kit), and the prepared samples were denatured at 95° C. for 5 min and placed on ice for use. Antibody Diluent II (provided in the kit) was used to dilute the primary antibody, in which the dilution ratios of ERα (CST, 13258S) and β-actin (CST, 3700) antibodies were 1:40 and 1:500, respectively, the secondary antibody was a 1:1 mixture of goat anti-mouse and goat anti-rabbit secondary antibodies, and the chromogenic solution was a 1:1 mixture of Lumino-S and Peroxide. The prepared reagents were successively added to an assay plate according to instructions of the kit and detected on an instrument. Western blot band processing was performed using “Compass for SW”, a fully automatic protein expression quantitative analysis software, in which western blot bands were automatically simulated based on signal values. The proportion of ERα relative to the solvent control at different drug concentrations according to equation (1), wherein Acompound was the relative peak area of ERα in the treated group, and Asolvent was the relative peak area of ERα in the solvent control group.
ERα%=Acompound/Asolvent×100 equation (1)
DC50 calculation: Calculation was performed according to equation (1), and using Graphpad Prism 8.0 software, the compound concentration DC50 values at which the degradation rate of ERα was 50% were calculated using a non-linear four-parameter function (Non linear regression (curve fit)) (Table 1).
A general note: In western blotting, separated proteins are transferred to a membrane and probed.

A further test concerns MCF-7 cells. Nature of the test: Inhibitory effect of compounds on the proliferation of MCF-7 cells (CellTiter-Glo, 7 days). The settings on record: Homo sapiens, MCF7, 168 h, 7 days incubation. It counts as cell-based. As to the method: 1. Inhibitory Effect of Compounds on the Proliferation of MCF-7 Cells
Breast cancer cells MCF-7 were purchased from ATCC, the cell media were all EMEM+10% FBS, and the cells were cultured in an incubator at 37° C. under 5% CO2. On the first day, cells in the exponential growth phase were collected and cultured in a 10% css-FBS phenol red-free medium without cytokines for 3 days. After the completion of culture, a 10% css-FBS phenol red-free medium was used to adjust the cell suspension to the corresponding concentration and same was plated to 1000 cells/well. P-estradiol and compounds of different concentrations were added. A plate without adding any reagent was taken and used as Day0 with a reading value RLUday0, determined with CellTiter-Glo kit, placed in an incubator and incubated for 7 days. After the incubation was completed, according to operation instructions for a CellTiter-Glo kit (Promega, G7573), 50 μL of CellTiter-Glo solutions, which were pre-melted and equilibrated to room temperature, were added to each well, and the mixtures were uniformly mixed for 2 min using a microplate shaker. The plate was placed at room temperature for 10 min, and then […] signal values were measured using a microplate reader (PHERAstar FSX). Chemiluminescence readouts were processed using origin9.2 software and the DoseResp function was used to calculate the GIsovalue for the inhibitory activity of compounds on the proliferation of cells (Table 1). The results were processed according to equation (1), the inhibition rate of the compound at different concentrations was calculated, and the GI50 value of the compound with a proliferation rate of 50% was calculated using origin9.2 software, wherein RLUcompound was the readout of the treated group, and RLUcontrol was the average value of the solvent control group.
Growth %=(RLUcompound−RLUday0)/(RLUcontrol−RLUday0)×100 equation (1)
On the technique in general: ATP-based viability assays read luminescence as a measure of living cells.

Another test has as its system ER. The note with it: clinical samples; cited from earlier work.

The structures appear in SMILES notation.

What is called DC50 is the concentration giving 50% degradation. Lower therefore signals a more potent degrader. Broadly, the Dmax is the largest share of the target that was removed. Low values mean shallow degradation, high ones deep degradation. One may read the GI50 as the concentration that inhibits growth by half. Low readings indicate greater sensitivity of the cells, high ones lower sensitivity of the cells.

Chain of ERα (P03372 whole entry): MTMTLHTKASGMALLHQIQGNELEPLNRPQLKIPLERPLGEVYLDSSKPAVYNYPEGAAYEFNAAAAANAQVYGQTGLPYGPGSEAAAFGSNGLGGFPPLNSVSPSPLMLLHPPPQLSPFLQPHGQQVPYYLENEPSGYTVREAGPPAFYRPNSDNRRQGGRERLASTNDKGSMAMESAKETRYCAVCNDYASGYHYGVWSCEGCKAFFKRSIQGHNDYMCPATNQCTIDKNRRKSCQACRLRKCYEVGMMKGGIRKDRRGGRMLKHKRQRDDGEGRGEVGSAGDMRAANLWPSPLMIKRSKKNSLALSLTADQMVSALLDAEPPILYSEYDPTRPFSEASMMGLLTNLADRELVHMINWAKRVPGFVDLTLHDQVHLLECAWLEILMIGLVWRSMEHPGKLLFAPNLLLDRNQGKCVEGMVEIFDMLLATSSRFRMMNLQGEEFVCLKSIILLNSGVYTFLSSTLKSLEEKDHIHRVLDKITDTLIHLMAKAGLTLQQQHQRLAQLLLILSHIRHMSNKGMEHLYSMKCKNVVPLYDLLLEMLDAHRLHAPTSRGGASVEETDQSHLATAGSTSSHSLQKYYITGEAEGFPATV

On ERα, `CC1Cc2c([nH]c3cc4c(cc23)CC4)C(c2c(F)cc(NC3CN(CCCF)C3)cc2F)N1CC(F)(F)F` (single isomer, unassigned) [Compound 22-1, N-(3,5-difluoro-4-(3-methyl-2-(2,2,2-trifluoroethyl)-2,3,4,6,7,9-hexahydro-1H-cyclobuta[f]pyrido[3,4-b]indol-1-yl)phenyl)-1-(3-fluoropropyl)azetidin-3-amine] displayed a DC50 of 1.13 nM and a Dmax at 0.1 µM of 69%.
For `Cc1ccc2c3c([nH]c2c1)[C@@H](c1c(F)cc(N[C@H]2CCN(CCCF)C2)cc1F)N(CC(F)(F)CO)[C@H](C)C3` [Compound 8, 3-((1R,3R)-1-(2,6-difluoro-4-(((S)-1-(3-fluoropropyl)pyrrolidin-3-yl)amino)phenyl)-3,7-dimethyl-1,3,4,9-tetrahydro-2H-pyrido[3,4-b]indol-2-yl)-2,2-difluoropropan-1-ol], in that order: 0.594 nM and 70%.
At ERα, `C[C@@H]1Cc2c([nH]c3cccc(F)c23)[C@@H](c2c(F)cc(N[C@H]3CCN(CCCF)C3)cc2F)N1CC(F)(F)CO` [Compound 15, 3-((1R,3R)-1-(2,6-difluoro-4-(((S)-1-(3-fluoropropyl)pyrrolidin-3-yl)amino)phenyl)-5-fluoro-3-methyl-1,3,4,9-tetrahydro-2H-pyrido[3,4-b]indol-2-yl)-2,2-difluoropropan-1-ol] had a DC50 of 0.447 nM and a Dmax at 0.1 µM of 72%.
For `C[C@@H]1Cc2c([nH]c3cc(F)ccc23)[C@@H](c2c(F)cc(N[C@H]3CCN(CCCF)C3)cc2F)N1CC(F)(F)CO` [Compound 31, 3-((1R,3R)-1-(2,6-difluoro-4-(((S)-1-(3-fluoropropyl)pyrrolidin-3-yl)amino)phenyl)-7-fluoro-3-methyl-1,3,4,9-tetrahydro-2H-pyrido[3,4-b]indol-2-yl)-2,2-difluoropropan-1-ol] the same measures were 0.244 nM and 77%.
Compound `C[C@@H]1Cc2c([nH]c3cc(F)c(F)cc23)[C@@H](c2c(F)cc(N[C@H]3CCN(CCCF)C3)cc2F)N1CC(F)(F)CO` [Compound 35, 3-((1R,3R)-1-(2,6-difluoro-4-(((S)-1-(3-fluoropropyl)pyrrolidin-3-yl)amino)phenyl)-6,7-difluoro-3-methyl-1,3,4,9-tetrahydro-2H-pyrido[3,4-b]indol-2-yl)-2,2-difluoropropan-1-ol] yielded a GI50 with MCF-7 cells of under 0.026 nM. Moreover, on ERα, half-maximal degradation (DC50) was put at 0.269 nM and the greatest degradation seen (Dmax) at 0.1 µM was 68%.
In the case of `C[C@@H]1Cc2c([nH]c3ccc(F)cc23)[C@@H](c2c(F)cc(N[C@H]3CCN(CCCF)C3)cc2F)N1CC(F)(F)CF` [Compound 38, (S)—N-(3,5-difluoro-4-((1R,3R)-6-fluoro-3-methyl-2-(2,2,3-trifluoropropyl)-2,3,4,9-tetrahydro-1H-pyrido[3,4-b]indol-1-yl)phenyl)-1-(3-fluoropropyl)pyrrolidin-3-amine], the GI50 in the test on MCF-7 cells was under 0.026 nM. On ERα, this compound displayed a DC50 of 1.7 nM and a Dmax at 0.1 µM of 72%.
For `Cc1ccc2[nH]c3c(c2c1)C[C@@H](C)N(CC(F)(F)CO)[C@@H]3c1c(F)cc(N[C@H]2CCN(CCCF)C2)cc1F` [Compound 49, 3-((1R,3R)-1-(2,6-difluoro-4-(((S)-1-(3-fluoropropyl)pyrrolidin-3-yl)amino)phenyl)-3,6-dimethyl-1,3,4,9-tetrahydro-2H-pyrido[3,4-b]indol-2-yl)-2,2-difluoropropan-1-ol] the same measures were under 0.026 nM, 0.726 nM and 70%.
On ERα, `C#Cc1ccc2c3c([nH]c2c1)[C@@H](c1c(F)cc(NC2CN(CCCF)C2)cc1F)N(CC(F)(F)F)[C@H](C)C3` [Compound 51, N-(4-((1R,3R)-7-ethynyl-3-methyl-2-(2,2,2-trifluoroethyl)-2,3,4,9-tetrahydro-1H-pyrido[3,4-b]indol-1-yl)-3,5-difluorophenyl)-1-(3-fluoropropyl)azetidin-3-amine] registered a DC50 of 0.712 nM and a Dmax at 0.1 µM of 68%.
Turning to `C[C@]12CC[C@@H]3c4ccc(O)cc4C[C@@H](CCCCCCCCC[S+]([O-])CCCC(F)(F)C(F)(F)F)[C@H]3[C@@H]1CC[C@@H]2O` (some centres unmarked) [Fulvestrant], the ER degradation entry in the test on ER is “approximately 50%”.
